The subject of assay [1] is Murine melanoma B16-F10 cells. The assay can be described thus: In vitro cytotoxicity vs B16-F10 (72 h, neutral red staining). In kind it is cell-based. Particulars: Mus musculus, neutral red at 540 nm. Here is the method:
Murine melanoma B16-F10 cells were grown and maintained at 37° C. under a humidified atmosphere in a 5% CO2 incubator in Eagle's MEM medium (Nissui) containing kanamycin (60 μg/ml), and supplemented with heat inactivated fetal calf serum (10%) and non-essential amino acids (0.6%). For in vitro cytotoxicity experiments, exponentially growing B16-F10 cells were harvested, counted, and suspended in the culture medium at the concentration of 2.0×10^4 cells/ml. Twenty-four hours after planting cell suspension (180 μl ) into wells of a 96-well microtiter plate, test materials (20 μl) were added to the wells and the plates were incubated for 72 hours. The cytotoxic activity against B16-F10 cells was colorimetrically determined at 540 nm after staining viable cells with neutral red solution.

In assay [2] the test system is murine P388 lymphocytic leukemia. The assay is described as follows: In vivo antitumor activity against murine P388 lymphocytic leukemia. The note with it: median survival time treated/control; P388 i.p. day 0, i.p. once on day 1 (Q1D×1), observed 45 days; maximum T/C, at dose (mg/kg): D 30, E 120, F 60, G 120, H 30, I 10, K 10, Etoposide 120; >125% considered significant. Details: species or system mice (female CDF1). Here is the method: Representative compounds of the present invention were evaluated against murine P388 lymphocytic leukemia. Female CDF1 mice were inoculated with 1.0×10^6 of leukemia cells intraperitoneally (day 0), and test materials were intraperitoneally administered to mice once on day 1 (Q1D×1). […] The median survival time (MST) of each group was recorded, and antitumor activity was expressed as T/C % values calculated by the following equation:
T/C%=(MST of treated.div.MST of control)×100

Molecules are shown by their SMILES. ≈ marks a conversion by molar mass, not a printed value.

`COc1cc([C@@H]2c3cc4c(cc3[C@@H](O[C@@H]3O[C@H](CO)[C@@H](O)[C@H]3O)[C@H]3COC(=O)[C@H]23)OCO4)cc(OC)c1O` [Compound D, 4'-Demethyl-4-O-(β-D-ribofuranosyl)epipodophyllotoxin] came in with a half-inhibitory concentration (IC50) in assay [1] of 18 µg/mL (≈ 33.8 µM). Besides, in assay [2], the “Antitumor Activity vs P388, Max % T/C” value worked out at 130%. For `COc1cc([C@@H]2c3cc4c(cc3[C@@H](O[C@@H]3OC[C@@H](OC(C)=O)[C@@H](OC(C)=O)[C@H]3OC(C)=O)[C@H]3COC(=O)[C@H]23)OCO4)cc(OC)c1O` [Compound E, 4'-Demethyl-4-O-(2,3,4-tri-O-acetyl-β-D-ribopyranosyl)epipodophyllotoxin], in that order: 4 µg/mL (≈ 6.07 µM) and 171%. For `COc1cc([C@@H]2c3cc4c(cc3[C@@H](O[C@@H]3OC[C@@H](O)[C@@H](O)[C@H]3O)[C@H]3COC(=O)[C@H]23)OCO4)cc(OC)c1O` [Compound F, 4'-Demethyl-4-O-(β-D-ribopyranosyl)epipodophyllotoxin], in that order: 1 µg/mL (≈ 1.88 µM) and 181%. Regarding `COc1cc([C@@H]2c3cc4c(cc3[C@@H](O[C@@H]3OC[C@H]5OC(C)O[C@H]5[C@H]3O)[C@H]3COC(=O)[C@H]23)OCO4)cc(OC)c1O` (stereo partly drawn) [Compound G, 4'-Demethyl-4-O-(3,4-O-ethylidene-β-D-ribopyranosyl)epipodophyllotoxin], it took 2.5 µg/mL (≈ 4.48 µM) to reach half-maximal inhibition in assay [1] (IC50). Moreover, in assay [2], the “Antitumor Activity vs P388, Max % T/C” value amounted to 152%. The compound `COc1cc([C@@H]2c3cc4c(cc3[C@@H](O[C@@H]3OC[C@@H](O)[C@H](O)[C@H]3O)[C@H]3COC(=O)[C@H]23)OCO4)cc(OC)c1O` [Compound H, 4'-Demethyl-4-O-(β-D-xylopyranosyl)epipodophyllotoxin] came in with a 50% inhibitory concentration (IC50) in assay [1] of 0.53 µg/mL (≈ 0.995 µM). Besides, the “Antitumor Activity vs P388, Max % T/C” value in assay [2] was determined as 150%. For `COc1cc([C@@H]2c3cc4c(cc3[C@@H](O[C@H]3OC[C@@H](O)[C@H](O)[C@H]3O)[C@H]3COC(=O)[C@H]23)OCO4)cc(OC)c1O` [Compound I, 4'-Demethyl-4-O-(α-D-xylopyranosyl)epipodophyllotoxin], in that order: 2.3 µg/mL (≈ 4.32 µM) and 140%.

`COc1cc([C@@H]2c3cc4c(cc3[C@@H](O[C@H]3OC[C@@H](O)[C@@H](O)[C@@H]3O)[C@H]3COC(=O)[C@H]23)OCO4)cc(OC)c1O` [Compound K, 4'-Demethyl-4-O-(α-D-arabinopyranosyl)epipodophyllotoxin]: in assay [1], 28 µg/mL (≈ 52.6 µM) corresponded to half-maximal inhibition (IC50). Moreover, in assay [2], the “Antitumor Activity vs P388, Max % T/C” value came out at 125%.

In the case of `COc1cc([C@@H]2c3cc4c(cc3[C@@H](O[C@@H]3O[C@@H]5CO[C@@H](C)O[C@H]5[C@H](O)[C@H]3O)[C@H]3COC(=O)[C@H]23)OCO4)cc(OC)c1O` [Etoposide, reference compound], 0.21 µg/mL (≈ 0.357 µM) corresponded to half-maximal inhibition in assay [1] (IC50).

Source of the values: US5081234A, “4'-demethylepipodophyllotoxin glycosides” (Bristol-Myers Squibb Co., priority 1990, dated 1992).
